From the kinase profiling compilation of Christmann-Franck et al. (2016)

Assays:
Test in all cases: radiometric filter-binding kinase assay, Kinase HotSpot
Conditions in all cases: compound 0.5 µM; ATP 10 µM
PRKACG (human) = PRKACG (human) (UniProt P22612)
MYO3B (human) = MYO3B (human) (UniProt Q8WXR4)
GRK4 (human) = GRK4 (human) (UniProt P32298)
DYRK2 (human) = DYRK2 (human) (UniProt Q92630)
ROCK1 (human) = ROCK1 (human) (UniProt Q13464)
CAMK1 (human) = CAMK1 (human) (UniProt Q14012)
DAPK2 (human) = DAPK2 (human) (UniProt Q9UIK4)
YES1 (human) = YES1 (human) (UniProt P07947)
AURKC (human) = AURKC (human) (UniProt Q9UQB9)
AURKC (human), sequence (Q9UQB9 whole entry, looked up): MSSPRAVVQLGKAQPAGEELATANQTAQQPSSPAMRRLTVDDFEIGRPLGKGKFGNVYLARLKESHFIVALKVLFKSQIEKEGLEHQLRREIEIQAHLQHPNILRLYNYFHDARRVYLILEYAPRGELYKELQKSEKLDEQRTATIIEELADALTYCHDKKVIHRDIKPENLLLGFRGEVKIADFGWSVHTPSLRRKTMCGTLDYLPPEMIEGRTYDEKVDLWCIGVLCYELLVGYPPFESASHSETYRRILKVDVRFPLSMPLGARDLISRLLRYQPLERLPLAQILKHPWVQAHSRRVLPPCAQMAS

DMPK (human) = DMPK (human) (UniProt Q09013)
DMPK (human), sequence (Q09013 whole entry, looked up): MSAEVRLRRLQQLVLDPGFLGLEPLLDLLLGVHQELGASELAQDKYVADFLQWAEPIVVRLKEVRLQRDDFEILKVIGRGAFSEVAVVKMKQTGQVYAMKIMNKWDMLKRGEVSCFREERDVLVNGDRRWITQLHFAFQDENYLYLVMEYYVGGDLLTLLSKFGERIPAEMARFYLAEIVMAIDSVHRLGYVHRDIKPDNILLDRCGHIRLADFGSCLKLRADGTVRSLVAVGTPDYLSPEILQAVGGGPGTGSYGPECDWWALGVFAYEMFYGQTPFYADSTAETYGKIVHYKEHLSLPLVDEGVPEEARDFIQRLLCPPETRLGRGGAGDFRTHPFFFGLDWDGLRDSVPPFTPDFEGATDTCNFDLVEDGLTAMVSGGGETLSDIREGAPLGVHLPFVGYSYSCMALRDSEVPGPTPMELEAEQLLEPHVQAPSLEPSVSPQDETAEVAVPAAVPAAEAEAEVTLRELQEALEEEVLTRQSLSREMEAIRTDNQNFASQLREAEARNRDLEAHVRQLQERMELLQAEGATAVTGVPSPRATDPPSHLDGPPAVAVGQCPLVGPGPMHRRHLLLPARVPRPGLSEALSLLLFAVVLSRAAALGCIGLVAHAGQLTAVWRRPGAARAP

FLT3 (human) = FLT3 (human) (UniProt P36888)
ULK3 (human) = ULK3 (human) (UniProt Q6PHR2)
EPHB4 (human) = EPHB4 (human) (UniProt P54760)
PRKCG (human) = PRKCG (human) (UniProt P05129)
BRAF (human) = BRAF (human) (UniProt P15056)
BRAF (human), sequence (P15056 whole entry, looked up): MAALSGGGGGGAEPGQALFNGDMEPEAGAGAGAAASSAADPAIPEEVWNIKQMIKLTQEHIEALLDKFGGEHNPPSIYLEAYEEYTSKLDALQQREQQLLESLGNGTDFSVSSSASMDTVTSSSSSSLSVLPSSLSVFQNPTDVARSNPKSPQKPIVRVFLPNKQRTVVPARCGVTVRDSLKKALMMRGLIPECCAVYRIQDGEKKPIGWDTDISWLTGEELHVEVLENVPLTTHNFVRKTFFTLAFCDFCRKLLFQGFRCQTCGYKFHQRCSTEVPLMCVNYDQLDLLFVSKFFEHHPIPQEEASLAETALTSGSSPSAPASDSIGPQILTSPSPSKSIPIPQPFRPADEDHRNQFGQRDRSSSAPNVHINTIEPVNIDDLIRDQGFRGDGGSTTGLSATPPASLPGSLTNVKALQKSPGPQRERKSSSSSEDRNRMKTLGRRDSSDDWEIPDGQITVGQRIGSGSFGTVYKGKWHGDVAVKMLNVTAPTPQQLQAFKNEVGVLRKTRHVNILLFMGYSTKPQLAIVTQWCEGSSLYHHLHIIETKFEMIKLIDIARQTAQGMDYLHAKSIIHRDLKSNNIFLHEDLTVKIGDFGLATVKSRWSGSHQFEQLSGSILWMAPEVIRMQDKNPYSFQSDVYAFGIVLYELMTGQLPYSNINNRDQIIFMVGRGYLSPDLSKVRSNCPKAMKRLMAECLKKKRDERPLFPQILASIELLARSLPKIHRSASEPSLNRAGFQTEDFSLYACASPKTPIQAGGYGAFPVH

BMX (human) = BMX (human) (UniProt P51813)
STK38 (human) = STK38 (human) (UniProt Q15208)
PAK7 (human) = PAK7 (human) (UniProt Q9P286)
ACVR1B (human) = ACVR1B (human) (UniProt P36896)
ACVR1B (human), sequence (P36896 whole entry, looked up): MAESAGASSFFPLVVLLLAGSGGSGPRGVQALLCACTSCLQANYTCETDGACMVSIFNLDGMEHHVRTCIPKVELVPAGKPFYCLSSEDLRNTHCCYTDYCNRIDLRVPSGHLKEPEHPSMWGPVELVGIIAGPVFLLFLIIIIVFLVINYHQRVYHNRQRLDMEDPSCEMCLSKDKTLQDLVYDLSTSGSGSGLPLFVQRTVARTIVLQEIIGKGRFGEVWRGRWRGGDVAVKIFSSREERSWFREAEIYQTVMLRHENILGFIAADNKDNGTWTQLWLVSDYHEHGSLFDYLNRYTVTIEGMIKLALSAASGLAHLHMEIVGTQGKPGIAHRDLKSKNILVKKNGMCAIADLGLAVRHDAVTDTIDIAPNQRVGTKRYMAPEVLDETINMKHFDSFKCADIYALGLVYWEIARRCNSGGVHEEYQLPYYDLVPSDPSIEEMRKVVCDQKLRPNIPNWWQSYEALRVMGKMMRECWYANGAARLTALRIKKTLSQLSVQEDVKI

IGF1R (human) = IGF1R (human) (UniProt P08069)
EPHA7 (human) = EPHA7 (human) (UniProt Q15375)
EPHA6 (human) = EPHA6 (human) (UniProt Q9UF33)
TLK2 (human) = TLK2 (human) (UniProt Q86UE8)
EPHA5 (human) = EPHA5 (human) (UniProt P54756)
NEK1 (human) = NEK1 (human) (UniProt Q96PY6)
FRK (human) = FRK (human) (UniProt P42685)
ADRBK1 (human) = ADRBK1 (human) (UniProt P25098)
CDK2 CCNE1 (human) = CDK2 CCNE1 (human) (UniProt P24941+P24864)
PRKCD (human) = PRKCD (human) (UniProt Q05655)
PIM1 (human) = PIM1 (human) (UniProt P11309)
STK3 (human) = STK3 (human) (UniProt Q13188)
IKBKE (human) = IKBKE (human) (UniProt Q14164)
MAP3K11 (human) = MAP3K11 (human) (UniProt Q16584)
INSR (human) = INSR (human) (UniProt P06213)
INSR (human), sequence (P06213 whole entry, looked up): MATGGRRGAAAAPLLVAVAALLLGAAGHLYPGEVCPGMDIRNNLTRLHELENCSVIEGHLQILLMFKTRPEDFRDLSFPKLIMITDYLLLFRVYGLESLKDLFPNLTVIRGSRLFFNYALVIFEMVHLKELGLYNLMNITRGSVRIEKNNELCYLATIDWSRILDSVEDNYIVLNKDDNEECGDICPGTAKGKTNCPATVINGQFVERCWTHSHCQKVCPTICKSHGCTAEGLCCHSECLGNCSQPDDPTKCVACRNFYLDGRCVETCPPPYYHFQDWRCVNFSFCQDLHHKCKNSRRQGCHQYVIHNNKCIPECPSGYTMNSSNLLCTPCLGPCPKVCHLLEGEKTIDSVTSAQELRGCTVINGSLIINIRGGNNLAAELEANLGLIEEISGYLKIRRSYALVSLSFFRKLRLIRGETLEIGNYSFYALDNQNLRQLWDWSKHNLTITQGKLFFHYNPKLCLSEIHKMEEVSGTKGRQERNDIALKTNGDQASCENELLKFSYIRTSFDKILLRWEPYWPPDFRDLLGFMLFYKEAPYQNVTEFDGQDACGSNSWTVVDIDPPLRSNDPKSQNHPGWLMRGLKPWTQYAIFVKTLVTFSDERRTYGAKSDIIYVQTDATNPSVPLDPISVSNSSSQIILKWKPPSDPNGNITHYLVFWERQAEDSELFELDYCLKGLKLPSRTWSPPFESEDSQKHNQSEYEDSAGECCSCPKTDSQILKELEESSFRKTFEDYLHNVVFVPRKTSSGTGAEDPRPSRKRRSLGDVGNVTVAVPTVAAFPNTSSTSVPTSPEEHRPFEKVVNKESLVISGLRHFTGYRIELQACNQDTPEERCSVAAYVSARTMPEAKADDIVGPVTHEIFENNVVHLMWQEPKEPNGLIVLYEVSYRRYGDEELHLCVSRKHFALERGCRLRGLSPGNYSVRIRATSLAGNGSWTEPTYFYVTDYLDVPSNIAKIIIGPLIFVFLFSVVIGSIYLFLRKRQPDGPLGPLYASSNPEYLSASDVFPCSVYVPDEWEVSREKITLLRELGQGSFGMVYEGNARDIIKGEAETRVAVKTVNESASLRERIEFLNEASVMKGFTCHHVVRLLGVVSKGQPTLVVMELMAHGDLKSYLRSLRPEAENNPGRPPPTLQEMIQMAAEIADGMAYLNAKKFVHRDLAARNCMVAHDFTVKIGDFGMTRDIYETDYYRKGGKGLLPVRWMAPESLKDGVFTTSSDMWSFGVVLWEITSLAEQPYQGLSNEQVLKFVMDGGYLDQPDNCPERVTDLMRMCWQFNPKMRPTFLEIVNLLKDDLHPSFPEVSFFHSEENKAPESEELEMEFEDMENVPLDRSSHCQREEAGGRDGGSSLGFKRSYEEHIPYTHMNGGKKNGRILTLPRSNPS

GSK3B (human) = GSK3B (human) (UniProt P49841)
MAP3K5 (human) = MAP3K5 (human) (UniProt Q99683)
FGFR1 (human) = FGFR1 (human) (UniProt P11362)
RPS6KA2 KD1 KD2 (human) = RPS6KA2 KD1 KD2 (human) (UniProt Q15349)
RPS6KA2 KD1 KD2 (human), sequence (Q15349 whole entry, looked up): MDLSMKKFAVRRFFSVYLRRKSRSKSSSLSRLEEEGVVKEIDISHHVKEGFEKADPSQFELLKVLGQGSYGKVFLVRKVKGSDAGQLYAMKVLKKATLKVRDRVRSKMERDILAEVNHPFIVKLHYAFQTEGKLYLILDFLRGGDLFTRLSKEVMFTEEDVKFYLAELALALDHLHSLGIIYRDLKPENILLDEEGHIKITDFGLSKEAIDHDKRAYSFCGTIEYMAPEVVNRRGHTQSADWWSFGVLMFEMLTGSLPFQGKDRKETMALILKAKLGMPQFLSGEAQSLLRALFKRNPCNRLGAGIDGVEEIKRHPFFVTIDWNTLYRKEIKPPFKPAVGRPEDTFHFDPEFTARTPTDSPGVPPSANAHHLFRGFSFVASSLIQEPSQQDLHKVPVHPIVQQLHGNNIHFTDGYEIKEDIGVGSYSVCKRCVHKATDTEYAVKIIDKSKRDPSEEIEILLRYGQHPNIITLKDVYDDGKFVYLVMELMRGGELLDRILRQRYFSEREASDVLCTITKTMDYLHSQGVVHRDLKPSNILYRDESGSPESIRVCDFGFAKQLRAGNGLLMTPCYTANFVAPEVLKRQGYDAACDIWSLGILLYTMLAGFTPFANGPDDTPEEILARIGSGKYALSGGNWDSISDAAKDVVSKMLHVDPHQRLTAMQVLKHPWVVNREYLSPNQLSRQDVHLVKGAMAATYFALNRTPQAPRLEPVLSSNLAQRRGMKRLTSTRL

SYK (human) = SYK (human) (UniProt P43405)
MAPKAPK3 (human) = MAPKAPK3 (human) (UniProt Q16644)

GRK4 (human), sequence (P32298 whole entry, looked up): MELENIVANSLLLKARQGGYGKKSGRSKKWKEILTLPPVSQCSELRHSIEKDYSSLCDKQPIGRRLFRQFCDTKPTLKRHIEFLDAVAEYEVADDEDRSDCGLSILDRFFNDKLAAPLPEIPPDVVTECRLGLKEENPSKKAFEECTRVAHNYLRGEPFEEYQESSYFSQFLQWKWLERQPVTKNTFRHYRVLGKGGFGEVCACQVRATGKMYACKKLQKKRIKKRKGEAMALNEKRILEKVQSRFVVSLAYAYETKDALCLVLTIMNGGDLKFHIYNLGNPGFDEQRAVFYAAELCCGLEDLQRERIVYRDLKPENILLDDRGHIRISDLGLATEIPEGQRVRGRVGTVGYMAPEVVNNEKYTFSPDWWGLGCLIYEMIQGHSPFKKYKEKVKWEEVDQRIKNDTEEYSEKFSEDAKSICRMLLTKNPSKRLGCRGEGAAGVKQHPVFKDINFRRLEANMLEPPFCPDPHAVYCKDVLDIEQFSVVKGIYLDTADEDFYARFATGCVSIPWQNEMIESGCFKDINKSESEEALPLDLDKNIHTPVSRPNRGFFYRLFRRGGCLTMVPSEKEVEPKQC

| SMILES | residual activity (PRKACG (human)) | residual activity (MYO3B (human)) | residual activity (GRK4 (human)) | residual activity (DYRK2 (human)) | residual activity (ROCK1 (human)) | residual activity (CAMK1 (human)) | residual activity (DAPK2 (human)) | residual activity (YES1 (human)) | residual activity (AURKC (human)) | residual activity (DMPK (human)) | residual activity (FLT3 (human)) | residual activity (ULK3 (human)) | residual activity (EPHB4 (human)) | residual activity (PRKCG (human)) | residual activity (BRAF (human)) | residual activity (BMX (human)) | residual activity (STK38 (human)) | residual activity (PAK7 (human)) | residual activity (ACVR1B (human)) | residual activity (IGF1R (human)) | further results |
| --- | --- | --- | --- | --- | --- | --- | --- | --- | --- | --- | --- | --- | --- | --- | --- | --- | --- | --- | --- | --- | --- |
| O=C1NC(=O)/C(=C\c2ccc3nccnc3c2)S1 | 99.6% | 83.8% | 106% | 39.8% | 94% | 95.7% | 139% | 89.3% | 95.6% | 112% | 95.2% | 102% | 101% | 105% | 95.1% | 98.6% | 99.6% | 97.4% | 109% | 92% | residual activity (EPHA7 (human)): 96.7%; residual activity (EPHA6 (human)): 82.4%; residual activity (TLK2 (human)): 95.2%; residual activity (EPHA5 (human)): 99.5%; residual activity (NEK1 (human)): 73.6%; residual activity (FRK (human)): 91.7%; residual activity (ADRBK1 (human)): 93.3%; residual activity (CDK2 CCNE1 (human)): 91.8%; residual activity (PRKCD (human)): 94.4%; residual activity (PIM1 (human)): 61.7%; residual activity (STK3 (human)): 104%; residual activity (IKBKE (human)): 99.5%; residual activity (MAP3K11 (human)): 97.5%; residual activity (INSR (human)): 108%; residual activity (GSK3B (human)): 93.4%; residual activity (MAP3K5 (human)): 102%; residual activity (FGFR1 (human)): 88.5%; residual activity (RPS6KA2 KD1 KD2 (human)): 85.4%; residual activity (SYK (human)): 98%; residual activity (MAPKAPK3 (human)): 104% |
| CN(C)C[C@H]1CCn2c(c(C3=C(c4cn(C)c5ccccc45)C(=O)NC3=O)c3ccccc32)C1 | 108% | 87.9% | 76.4% | 102% | 106% | 105% | 90.4% | 95.3% | 93.1% | 106% | 37.1% | 88.9% | 90.9% | 6.93% | 95.2% | 91.7% | 96.7% | 100% | 98.2% | 101% | residual activity (EPHA7 (human)): 96.9%; residual activity (EPHA6 (human)): 100%; residual activity (TLK2 (human)): 88.4%; residual activity (EPHA5 (human)): 95.1%; residual activity (NEK1 (human)): 105%; residual activity (FRK (human)): 103%; residual activity (ADRBK1 (human)): 103%; residual activity (CDK2 CCNE1 (human)): 64.4%; residual activity (PRKCD (human)): 8.11%; residual activity (PIM1 (human)): 63.2%; residual activity (STK3 (human)): 102%; residual activity (IKBKE (human)): 78.8%; residual activity (MAP3K11 (human)): 95.2%; residual activity (INSR (human)): 88%; residual activity (GSK3B (human)): 11.2%; residual activity (MAP3K5 (human)): 107%; residual activity (FGFR1 (human)): 87.8%; residual activity (RPS6KA2 KD1 KD2 (human)): 3.57%; residual activity (SYK (human)): 99.6%; residual activity (MAPKAPK3 (human)): 97.9% |
